Test results reported in patent US6750219B1, “Ω-amino-α-hydroxycarboxylic acid derivatives having integrin ανβ3 antagonistic activity” (Meiji Seika Kaisha, Ltd., priority 1999, dated 2004).

Assays:
GP IIb/IIIa = GP IIb/IIIa (Homo sapiens, UniProt P05106+P08514); experiment: GP IIb/IIIa antagonistic activity (Pharmacological Test 2 in WO 94/21599); assay type: binding
Protocol: Pharmacological Test Example 2: GP IIb/IIIa Antagonistic Activity and Human Platelet Aggregation Inhibitory Activity
GP IIb/IIIa antagonistic activity was measured for the compounds according to the present invention. The measurement of the GP IIb/IIIa antagonistic activity was carried out according to the method described in Pharmacological Test 2 in WO 94/21599.

[1] = biological target: T1, integrin αvβ3 (vitronectin receptor purified from the human placenta) (Homo sapiens, UniProt P05106+P06756); experiment: αvβ3 binding assay (vitronectin-vitronectin receptor binding assay); settings: vitronectin binding to vitronectin receptor purified from human placenta; read-out: integrin αvβ3 antagonistic activity (IC50)
T1 construct: a vitronectin receptor (protein content: 118 mg/ml) purified from the human placenta; from tissue; host or cells: human placenta
T1 sequence (P06756 31-889 limits assumed): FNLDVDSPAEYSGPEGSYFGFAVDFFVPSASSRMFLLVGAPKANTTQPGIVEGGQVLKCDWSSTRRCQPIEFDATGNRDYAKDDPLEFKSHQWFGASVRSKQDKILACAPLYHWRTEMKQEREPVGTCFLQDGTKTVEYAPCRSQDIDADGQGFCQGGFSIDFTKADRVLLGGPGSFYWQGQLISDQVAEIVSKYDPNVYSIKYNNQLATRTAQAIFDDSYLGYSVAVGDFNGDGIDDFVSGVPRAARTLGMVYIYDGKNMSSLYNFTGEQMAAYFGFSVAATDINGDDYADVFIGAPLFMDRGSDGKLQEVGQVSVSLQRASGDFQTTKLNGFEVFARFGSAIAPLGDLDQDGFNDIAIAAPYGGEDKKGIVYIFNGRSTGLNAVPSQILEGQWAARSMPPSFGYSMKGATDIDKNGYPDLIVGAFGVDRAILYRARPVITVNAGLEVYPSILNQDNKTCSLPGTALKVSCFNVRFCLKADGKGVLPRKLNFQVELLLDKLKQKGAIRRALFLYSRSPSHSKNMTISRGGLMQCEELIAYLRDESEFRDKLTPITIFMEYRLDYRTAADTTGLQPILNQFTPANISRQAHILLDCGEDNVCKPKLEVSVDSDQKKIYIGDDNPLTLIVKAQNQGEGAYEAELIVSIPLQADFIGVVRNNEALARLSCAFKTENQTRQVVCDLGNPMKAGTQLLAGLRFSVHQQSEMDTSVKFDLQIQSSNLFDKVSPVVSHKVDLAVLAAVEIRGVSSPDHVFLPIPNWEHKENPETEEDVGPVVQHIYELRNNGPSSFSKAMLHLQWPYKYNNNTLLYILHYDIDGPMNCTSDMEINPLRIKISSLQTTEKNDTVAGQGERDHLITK
T1 sequence (P06756 891-1048 limits assumed): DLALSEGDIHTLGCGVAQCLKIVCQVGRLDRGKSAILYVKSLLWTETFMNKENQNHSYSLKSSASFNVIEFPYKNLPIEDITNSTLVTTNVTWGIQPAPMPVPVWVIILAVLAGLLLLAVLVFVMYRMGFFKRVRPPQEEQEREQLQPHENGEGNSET
T1 sequence (P05106 27-788): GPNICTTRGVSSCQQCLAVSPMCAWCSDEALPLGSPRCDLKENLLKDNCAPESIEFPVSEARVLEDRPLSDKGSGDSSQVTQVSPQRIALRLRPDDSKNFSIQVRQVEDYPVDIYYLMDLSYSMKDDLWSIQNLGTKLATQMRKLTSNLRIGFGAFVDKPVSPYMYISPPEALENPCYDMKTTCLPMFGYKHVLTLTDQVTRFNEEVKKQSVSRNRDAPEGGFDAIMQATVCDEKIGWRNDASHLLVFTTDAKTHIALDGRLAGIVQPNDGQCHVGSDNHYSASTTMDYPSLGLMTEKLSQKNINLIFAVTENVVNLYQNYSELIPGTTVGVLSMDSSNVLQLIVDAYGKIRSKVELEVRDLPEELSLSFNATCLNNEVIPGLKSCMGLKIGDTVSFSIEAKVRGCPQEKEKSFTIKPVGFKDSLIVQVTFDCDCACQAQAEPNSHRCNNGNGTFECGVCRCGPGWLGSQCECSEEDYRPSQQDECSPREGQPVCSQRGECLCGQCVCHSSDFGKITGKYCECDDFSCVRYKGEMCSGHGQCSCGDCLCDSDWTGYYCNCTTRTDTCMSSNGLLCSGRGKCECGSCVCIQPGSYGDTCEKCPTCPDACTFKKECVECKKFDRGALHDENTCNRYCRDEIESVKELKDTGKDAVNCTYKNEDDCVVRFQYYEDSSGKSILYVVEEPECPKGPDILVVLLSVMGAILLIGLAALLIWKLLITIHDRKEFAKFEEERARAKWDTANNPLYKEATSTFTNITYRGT
Protocol: Pharmacological Test Example 1: αvβ3 Binding Assay
Integrin αvβ3 antagonistic activity was first measured in a vitronectin-vitronectin receptor binding assay system in accordance with the method of Kouns et al. (W. C. Kouns, D. Kirchhofer, P. Hadvary, A. Edenhofer, T. Weller, G. Pfenninger, H. R. Baumgartner, L. K. Jennings and B. Steiner, Blood, 80, 2539-2547 (1992)). […] A 0.1 M citric acid buffer (pH 4.3) containing 0.05% NaN3 was added in an amount of […] to stop the reaction, followed by the measurement of the absorbance at 415 nm with a microplate reader (MTP 32, Corona Electric) (reference: 675 nm). The total binding was defined as the absorbance after a reaction using 50 ml of TBS-Tween instead of the test compound, and the non-specific binding (100% inhibition) was defined as the absorbance after a reaction using 50 ml of TBS-Tween containing 2×10^−3 M RGDS. The inhibition was calculated by the following equation: [formula]
IC50 was determined from a primary regression line of the logarithm of each concentration of the test compound and the logarithm of (100-inhibition)/inhibition.

solubility in water = assay type: physicochemical; settings: dihydrochloride; data omitted

Chain of GP IIb/IIIa (P08514 32-887 limits assumed): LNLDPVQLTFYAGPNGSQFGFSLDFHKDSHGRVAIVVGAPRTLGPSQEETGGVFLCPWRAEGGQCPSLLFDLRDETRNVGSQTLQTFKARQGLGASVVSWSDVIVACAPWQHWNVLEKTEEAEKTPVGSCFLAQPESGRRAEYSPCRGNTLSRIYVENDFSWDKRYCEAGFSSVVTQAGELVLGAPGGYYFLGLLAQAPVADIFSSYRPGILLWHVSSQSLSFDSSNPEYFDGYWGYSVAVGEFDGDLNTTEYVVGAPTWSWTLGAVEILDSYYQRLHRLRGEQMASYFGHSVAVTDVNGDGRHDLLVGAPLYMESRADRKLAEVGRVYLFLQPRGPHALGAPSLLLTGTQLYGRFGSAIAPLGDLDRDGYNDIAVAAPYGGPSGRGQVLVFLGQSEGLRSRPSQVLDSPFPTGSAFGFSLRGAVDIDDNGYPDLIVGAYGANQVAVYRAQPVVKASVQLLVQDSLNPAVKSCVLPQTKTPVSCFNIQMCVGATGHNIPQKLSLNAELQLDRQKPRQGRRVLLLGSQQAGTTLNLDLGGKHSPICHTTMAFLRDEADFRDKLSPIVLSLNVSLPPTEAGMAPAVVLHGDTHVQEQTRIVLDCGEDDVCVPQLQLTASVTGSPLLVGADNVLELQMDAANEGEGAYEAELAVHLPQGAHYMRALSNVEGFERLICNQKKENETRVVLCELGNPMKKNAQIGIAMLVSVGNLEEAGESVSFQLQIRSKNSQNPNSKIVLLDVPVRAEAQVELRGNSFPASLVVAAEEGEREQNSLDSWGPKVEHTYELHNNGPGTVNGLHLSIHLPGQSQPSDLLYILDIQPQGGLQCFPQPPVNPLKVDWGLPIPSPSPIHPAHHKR
Chain of GP IIb/IIIa (P08514 891-1039 limits assumed): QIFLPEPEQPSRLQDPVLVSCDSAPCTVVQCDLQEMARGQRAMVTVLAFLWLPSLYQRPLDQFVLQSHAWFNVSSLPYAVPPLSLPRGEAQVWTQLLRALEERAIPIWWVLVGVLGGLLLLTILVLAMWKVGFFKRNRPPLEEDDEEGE
Chain of GP IIb/IIIa (P05106 27-788): as the sequence (P05106 27-788) above

Row | IC50 (GP IIb/IIIa) | IC50 [1] | solubility in water (solubility in water) | Compound
1 | 12 nM | 2.8 nM | soluble in water | O=C(NC[C@H](O)C(=O)O)c1ccc(N2CCC(NC3=NCCCN3)CC2)c(F)c1 [Example 14, 3-[3-Fluoro-4-{4-(1,4,5,6-tetrahydropyrimidin-2-ylamino)piperidin-1-yl}benzoylamino]-(2S)-hydroxypropionic acid]
2 | 4.8 nM | 23 nM | soluble in water | O=C(NC[C@H](O)C(=O)O)c1ccc(N2CCC(NC3=NCCCN3)CC2)cc1 [Example 6, (2S)-Hydroxy-3-[4-{4-(1,4,5,6-tetrahydropyrimidin-2-ylamino)piperidin-1-yl}benzoylamino]-propionic acid]
